Measurements published in patent publication US10781211B2, “Spirocycle compounds and methods of making and using same” (Lundbeck La Jolla Research Center, Inc., priority 2016, dated 2020).

Key:
Format in all cases: in vivo
Details in all cases: 5 mg/kg oral gavage
FAAH = FAAH (Mus musculus (Mouse), UniProt O08914); test: Mouse brain proteomes from inhibitor treated mice (oral gavage, sacrifice 4 h after administration, ABPP analysis), FAAH
Procedure, shortened: (§1)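 Wild-type C57Bl/6J mice were dosed by oral gavage in vehicle (e.g. PEG400/Ethanol/PBS 7/2/1) and sacrificed 4 h later. Brain proteomes were analysed by activity-based protein profiling; values are % inhibition at 5 mg/kg.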

ABHD6 = ABHD6 (Mus musculus (Mouse), UniProt Q8R2Y0); test: Mouse brain proteomes from inhibitor treated mice (oral gavage, sacrifice 4 h after administration, ABPP analysis), ABHD6
Sequence of ABHD6 (Q8R2Y0 whole entry): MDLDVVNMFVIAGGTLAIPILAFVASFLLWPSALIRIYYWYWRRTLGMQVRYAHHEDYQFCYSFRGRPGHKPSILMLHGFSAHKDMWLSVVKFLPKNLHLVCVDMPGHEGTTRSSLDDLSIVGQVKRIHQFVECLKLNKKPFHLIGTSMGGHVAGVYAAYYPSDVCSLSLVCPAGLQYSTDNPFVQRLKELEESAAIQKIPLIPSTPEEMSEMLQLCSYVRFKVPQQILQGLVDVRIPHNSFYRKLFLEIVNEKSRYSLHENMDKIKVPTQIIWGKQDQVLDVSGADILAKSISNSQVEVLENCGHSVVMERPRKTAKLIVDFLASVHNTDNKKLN
Procedure, shortened: as §1

MAGL = MAGL (Mus musculus (Mouse), UniProt O35678); test: Mouse brain proteomes from inhibitor treated mice (oral gavage, sacrifice 4 h after administration, ABPP analysis)
Sequence of MAGL (O35678 whole entry): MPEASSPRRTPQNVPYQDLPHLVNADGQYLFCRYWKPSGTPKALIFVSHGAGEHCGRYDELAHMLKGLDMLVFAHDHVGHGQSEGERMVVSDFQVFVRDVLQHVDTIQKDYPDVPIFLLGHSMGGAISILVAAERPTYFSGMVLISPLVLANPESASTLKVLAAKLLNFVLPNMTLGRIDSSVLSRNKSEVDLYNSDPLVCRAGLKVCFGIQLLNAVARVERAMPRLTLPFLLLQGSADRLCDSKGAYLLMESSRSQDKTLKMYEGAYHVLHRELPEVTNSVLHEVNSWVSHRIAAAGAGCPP
Procedure, shortened: as §1

Sequence of FAAH (O08914 whole entry): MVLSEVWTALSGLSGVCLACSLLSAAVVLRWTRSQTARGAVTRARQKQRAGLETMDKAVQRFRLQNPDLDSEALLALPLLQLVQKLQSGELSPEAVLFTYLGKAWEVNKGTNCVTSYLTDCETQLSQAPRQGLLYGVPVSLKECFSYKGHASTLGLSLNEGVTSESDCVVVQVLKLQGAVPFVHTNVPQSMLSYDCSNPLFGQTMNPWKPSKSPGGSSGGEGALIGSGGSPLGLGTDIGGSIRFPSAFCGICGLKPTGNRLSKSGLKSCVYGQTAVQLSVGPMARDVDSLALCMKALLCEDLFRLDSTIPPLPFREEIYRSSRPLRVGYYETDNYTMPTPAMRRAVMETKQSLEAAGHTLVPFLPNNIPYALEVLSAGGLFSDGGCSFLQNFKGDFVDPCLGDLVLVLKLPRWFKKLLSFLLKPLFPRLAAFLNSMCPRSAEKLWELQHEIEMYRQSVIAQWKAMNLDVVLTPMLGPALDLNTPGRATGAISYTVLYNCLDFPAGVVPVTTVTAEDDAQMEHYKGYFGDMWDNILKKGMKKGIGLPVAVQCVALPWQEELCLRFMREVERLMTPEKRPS

SMILES | FAAH % Inh 5 mg/kg (mouse) (FAAH) | ABHD6 % Inh 5 mg/kg (mouse) (ABHD6) | MAGL % Inh 5 mg/kg (mouse) (MAGL)
COc1cc(Cl)ccc1CN1CCCC12CCN(C(=O)OC(C(F)(F)F)C(F)(F)F)CC2 [Example 9, 1,1,1,3,3,3-Hexafluoropropan-2-yl 1-(4-chloro-2-methoxybenzyl)-1,8-diazaspiro[4.5]decane-8-carboxylate] | # (# is < 25%) | # (# is < 25%) | ### (### is ≥ 75%)
CC1(C)CC2(CCN(C(=O)OC(C(F)(F)F)C(F)(F)F)CC2)CN1Cc1ccc(C(F)(F)F)cc1N1CCC2(CCOCC2)C1 [Example 52, 1,1,1,3,3,3-Hexafluoropropan-2-yl 2-(2-(8-oxa-2-azaspiro[4.5]decan-2-yl)-4-(trifluoromethyl)benzyl)-3,3-dimethyl-2,8-diazaspiro[4.5]decane-8-carboxylate] | # (# is < 25%) | # (# is < 25%) | # (# is < 25%)
O=C(OC(C(F)(F)F)C(F)(F)F)N1CCC2(CCCN2Cc2ccc(Cl)cc2OCCF)CC1 [Example 30, 1,1,1,3,3,3-Hexafluoropropan-2-yl 1-(4-chloro-2-(2-fluoroethoxy)benzyl)-1,8-diazaspiro[4.5]decane-8-carboxylate] | # (# is < 25%) | # (# is < 25%) | ### (### is ≥ 75%)
O=C(OC(C(F)(F)F)C(F)(F)F)N1CCC2(CCCN2Cc2cc(N3CCOCC3)cc(C(F)(F)F)c2)CC1 [Example 35, 1,1,1,3,3,3-Hexafluoropropan-2-yl 1-(3-morpholino-5-(trifluoromethyl)benzyl)-1,8-diazaspiro[4.5]decane-8-carboxylate] | # (# is < 25%) | # (# is < 25%) | ### (### is ≥ 75%)
O=C(OC(C(F)(F)F)C(F)(F)F)N1CCC2(CCCN2Cc2cccc(OCCF)c2)CC1 [Example 27, 1,1,1,3,3,3-Hexafluoropropan-2-yl 1-(3-(2-fluoroethoxy)benzyl)-1,8-diazaspiro[4.5]decane-8-carboxylate] | # (# is < 25%) | # (# is < 25%) | ### (### is ≥ 75%)
O=C(OC(C(F)(F)F)C(F)(F)F)N1CCC2(CCCN2Cc2cc(OC(F)(F)F)cc(N3CCOCC3)c2)CC1 [Example 37, 1,1,1,3,3,3-Hexafluoropropan-2-yl 1-(3-morpholino-5-(trifluoromethoxy)benzyl)-1,8-diazaspiro[4.5]decane-8-carboxylate] | # (# is < 25%) | # (# is < 25%) | ### (### is ≥ 75%)
CCOc1ccc(CN2CCCC23CCN(C(=O)OC(C(F)(F)F)C(F)(F)F)CC3)cc1 [Example 4, 1,1,1,3,3,3-Hexafluoropropan-2-yl 1-(4-ethoxybenzyl)-1,8-diazaspiro[4.5]decane-8-carboxylate] | # (# is < 25%) | # (# is < 25%) | ### (### is ≥ 75%)
CS(=O)(=O)NC1CCN(c2cc(C(F)(F)F)ccc2CN2CCCC23CCN(C(=O)OC(C(F)(F)F)C(F)(F)F)CC3)CC1 [Example 94, 1,1,1,3,3,3-Hexafluoropropan-2-yl 1-(2-(4-(methylsulfonamido)piperidin-1-yl)-4-(trifluoromethyl)benzyl)-1,8-diazaspiro[4.5]decane-8-carboxylate] | # (# is < 25%) | # (# is < 25%) | # (# is < 25%)
O=C(OC(C(F)(F)F)C(F)(F)F)N1CCC2(CCCN2Cc2ccc(C(F)(F)F)c(N3CCOCC3)c2)CC1 [Example 133, 1,1,1,3,3,3-Hexafluoropropan-2-yl 1-(3-morpholino-4-(trifluoromethyl)benzyl)-1,8-diazaspiro[4.5]decane-8-carboxylate] | # (# is < 25%) | # (# is < 25%) | ### (### is ≥ 75%)
CN1CCCc2ccc(CN3CCCC34CCN(C(=O)OC(C(F)(F)F)C(F)(F)F)CC4)cc21 [Example 68, 1,1,1,3,3,3-Hexafluoropropan-2-yl 1-((1-methyl-1,2,3,4-tetrahydroquinolin-7-yl)methyl)-1,8-diazaspiro[4.5]decane-8-carboxylate] | # (# is < 25%) | # (# is < 25%) | ### (### is ≥ 75%)
O=C(OC(C(F)(F)F)C(F)(F)F)N1CCC2(CCCN2Cc2ccc(Cl)cc2N2CCOCC2)CC1 [Example 77, 1,1,1,3,3,3-Hexafluoropropan-2-yl 1-(4-chloro-2-morpholinobenzyl)-1,8-diazaspiro[4.5]decane-8-carboxylate] | # (# is < 25%) | # (# is < 25%) | ### (### is ≥ 75%)
O=C(OC(C(F)(F)F)C(F)(F)F)N1CCC2(CCCN2Cc2ccc(Cl)c(OCCF)c2)CC1 [Example 28, 1,1,1,3,3,3-Hexafluoropropan-2-yl 1-(4-chloro-3-(2-fluoroethoxy)benzyl)-1,8-diazaspiro[4.5]decane-8-carboxylate] | # (# is < 25%) | # (# is < 25%) | ### (### is ≥ 75%)
O=C(OC(C(F)(F)F)C(F)(F)F)N1CCC2(CCCN2Cc2cc(N3CCCC3)cc(C(F)(F)F)c2)CC1 [Example 36, 1,1,1,3,3,3-Hexafluoropropan-2-yl 1-(3-(pyrrolidin-1-yl)-5-(trifluoromethyl)benzyl)-1,8-diazaspiro[4.5]decane-8-carboxylate] | # (# is < 25%) | # (# is < 25%) | ### (### is ≥ 75%)
O=C(O)C1CCN(c2cc(Cl)ccc2CN2CCCC23CCN(C(=O)OC(C(F)(F)F)C(F)(F)F)CC3)CC1 [Example 120, 1-(5-Chloro-2-((8-(((1,1,1,3,3,3-hexafluoropropan-2-yl)oxy)carbonyl)-1,8-diazaspiro[4.5]decan-1-yl)methyl)phenyl)piperidine-4-carboxylic acid] | # (# is < 25%) | # (# is < 25%) | ### (### is ≥ 75%)
O=C(OC(C(F)(F)F)C(F)(F)F)N1CCC2(CCCN2Cc2ccc(Cl)c(N3CCCC3)c2)CC1 [Example 132, 1,1,1,3,3,3-Hexafluoropropan-2-yl 1-(4-chloro-3-(pyrrolidin-1-yl)benzyl)-1,8-diazaspiro[4.5]decane-8-carboxylate] | # (# is < 25%) | # (# is < 25%) | ### (### is ≥ 75%)
Cc1c(CN2CCCC23CCN(C(=O)OC(C(F)(F)F)C(F)(F)F)CC3)cccc1N1CCCC1 [Example 85, 1,1,1,3,3,3-Hexafluoropropan-2-yl 1-(2-methyl-3-(pyrrolidin-1-yl)benzyl)-1,8-diazaspiro[4.5]decane-8-carboxylate] | # (# is < 25%) | # (# is < 25%) | ### (### is ≥ 75%)
O=C(O)[C@@H]1CCCN(c2cc(C(F)(F)F)ccc2CN2CCCC23CCN(C(=O)OC(C(F)(F)F)C(F)(F)F)CC3)C1 [Example 214] | # (# is < 25%) | # (# is < 25%) | ### (### is ≥ 75%)
O=C(OC(C(F)(F)F)C(F)(F)F)N1CCC2(CCCN2Cc2ccc(C(F)(F)F)c(Cl)c2)CC1 [Example 183, 1,1,1,3,3,3-Hexafluoropropan-2-yl 1-(3-chloro-4-(trifluoromethyl)benzyl)-1,8-diazaspiro[4.5]decane-8-carboxylate] | # (# is < 25%) | # (# is < 25%) | ### (### is ≥ 75%)
Cc1ccc(CN2CCCC23CCN(C(=O)OC(C(F)(F)F)C(F)(F)F)CC3)cc1Cl [Example 125, 1,1,1,3,3,3-Hexafluoropropan-2-yl 1-(3-chloro-4-methylbenzyl)-1,8-diazaspiro[4.5]decane-8-carboxylate] | # (# is < 25%) | # (# is < 25%) | ### (### is ≥ 75%)
COc1cccc(CN2CCCC23CCN(C(=O)OC(C(F)(F)F)C(F)(F)F)CC3)c1Cl [Example 7, 1,1,1,3,3,3-Hexafluoropropan-2-yl 1-(2-chloro-3-methoxybenzyl)-1,8-diazaspiro[4.5]decane-8-carboxylate] | ### (### is ≥ 75%) | # (# is < 25%) | ### (### is ≥ 75%)
Cc1cc(CN2CCCC23CCN(C(=O)OC(C(F)(F)F)C(F)(F)F)CC3)ccc1C(F)(F)F [Example 177, 1,1,1,3,3,3-Hexafluoropropan-2-yl 1-(3-methyl-4-(trifluoromethyl)benzyl)-1,8-diazaspiro[4.5]decane-8-carboxylate] | # (# is < 25%) | # (# is < 25%) | ### (### is ≥ 75%)
O=C(O)C1CCN(Cc2cc(CN3CCCC34CCN(C(=O)OC(C(F)(F)F)C(F)(F)F)CC4)cc(C(F)(F)F)c2)CC1 [Example 244] | # (# is < 25%) | # (# is < 25%) | ### (### is ≥ 75%)
CS(=O)(=O)N1CCN(c2cc(C(F)(F)F)ccc2CN2CCCC23CCN(C(=O)OC(C(F)(F)F)C(F)(F)F)CC3)CC1 [Example 89, 1,1,1,3,3,3-Hexafluoropropan-2-yl 1-(2-(4-(methylsulfonyl)piperazin-1-yl)-4-(trifluoromethyl)benzyl)-1,8-diazaspiro[4.5]decane-8-carboxylate] | # (# is < 25%) | # (# is < 25%) | # (# is < 25%)
